Measured values as given in article PMC6987146, “Potent inhibition of HIV replication in primary human cells by novel synthetic polyketides inspired by Aureothin” (Scientific Reports, 2020).

Assays:
[1] = test system: HIV-1LAI; experiment: Photostability of anti-HIV activity (24 h illumination vs dark, EASY-HIT read-out); format: cell-based; conditions: 24 h illumination vs same compound kept in the dark; compounds at IC90; LC5-RIC
Experimental: Figure 1 Profiling of photostability of anti-HIV activity of Aureothin and synthetic Aureothin-derivatives. Anti-HIV activity of compound samples illuminated for 24 h were normalised to anti-HIV activity of samples of the same compound kept in the dark. Anti-HIV activity was measured by quantifying the amounts of infectious virus produced by HIV-1LAI exposed LC5-RIC cells treated with compounds at IC90 concentrations (Supplementary Table S1). […] Shown are means of at least three independent experiments with biological triplicates (n ≥ 3; m = 3) and the standard error of the mean (SEM) indicated.
LC5-RIC cells were plated as described for the EASY-HIT assay. […] Plates were incubated either in the dark or under constant illumination with a commercially available desk lamp (2X Philips Master PL-S-9W/840/2 P, 30 cm between light source and compounds) for 24 h at room temperature. For analysis of anti-HIV activity, compound samples were transferred to LC5-RIC cells and their anti-HIV activity determined by measuring compound effects on infectious virus production with the EASY-HIT assay. Relative photostability was calculated by normalizing the anti-HIV activity of the illuminated compounds to the antiviral activity of compounds kept in the dark.

[2] = test system: HIV-2MVP10668-93; experiment: Inhibition of clinical isolate HIV-2 MVP10668-93 in PBMCs; format: cell-based, HIV-type 2; conditions: Human immunodeficiency virus 2, PBMC
From the text: (§1) Clinical isolates represented the following HIV genotypes: HIV-1MMVP899-87: HIV-type 1, Major group; HIV-1OMVP5180-91: HIV-type 1, Outlier group; HIV-2MVP10668-93: HIV-type 2; HIV-1V13-03413B: HIV-type 1, Major group/B-clade, isolate with multiple drug-resistance mutations. Depicted are the means of three independent experiments with biological triplicates (n = 3; m = 3) and standard deviations (SD).
(§2) Isolation of primary clinical HIV-isolates HIV-1MMVP899-87, HIV-1OMVP5180-91, HIV-1V13-03413B and HIV-2MVP10668-93 is described in[43]. The HIV-1 M group/B-clade isolate (HIV-1V13-03413B) was isolated from a patient with virological treatment failure. Clinical isolates were produced from HIV infected H9 cells as described.
(§3) To evaluate anti-HIV efficacies of test compounds in primary human target cells, stimulated PBMCs were seeded in 96-well plates at a density of 500,000 cells per well, different #7concentrations of the compound (serial dilutions) and virus inoculum (MOI of 0.5) added to the PBMCs and cultures incubated for 48 h. Infectious virus production was quantified by transferring 35 µl of supernatant from the PBMC cultures to LC5-RIC cells, seeded in black 96-well plates one day earlier. LC5-RIC cultures were then incubated for 72 h and analysed for DsRed1 reporter expression and anti-HIV activity calculated as described for the EASY-HIT assay.

[3] = test system: HIV-1V13-03413B; experiment: Inhibition of multi-drug-resistant clinical isolate HIV-1 V13-03413B in PBMCs; format: cell-based, HIV-type 1; conditions: Human immunodeficiency virus 1, PBMC
From the text: as §1, §2, §3

[4] = test system: HIV-1OMVP5180-91; experiment: Inhibition of clinical isolate HIV-1O MVP5180-91 in PBMCs; format: cell-based; conditions: PBMC, HIV-type 1, Outlier group
From the text: as §1, §2, §3

## COc1oc(C2C/C(=C/C(C)=C/c3ccc(C(F)(F)F)cc3)CO2)c(C)c(=O)c1C (stereo not shown) [compound #7]
[1]
  anti-HIV activity retained after exposure to light: over 95%
[2]; read-out: IC50 value, HIV-2 MVP10668-93
  IC50: 3.88 nM
[2]; read-out: IC90 value, HIV-2 MVP10668-93
  IC90: 11.7 nM
[3]; read-out: IC50 value, HIV-1 V13-03413B
  IC50: 4.2 nM
[3]; read-out: IC90 value, HIV-1 V13-03413B
  IC90: 10.5 nM
[4]
  IC50: 2.88 nM
  IC90: 8.65 nM
